Assay [1] addresses Sodium-dependent serotonin transporter (Rattus norvegicus, UniProt P31652). Description: Displacement of [3H]citalopram from SERT in rat brain stem by scintillation counting. The assay is classed as tissue-based.
In the next assay the target is Transporter (Rattus norvegicus, UniProt Q63380). Description: Displacement of [3H]nisoxetine from NET in rat frontal cortex by scintillation counting. The assay is classed as tissue-based.
Assay [2] deals with Sodium-dependent dopamine transporter (Rattus norvegicus, UniProt P23977). Description: Displacement of [3H]WIN-35428 from DAT in rat caudate-putamen by scintillation counting. In kind it is tissue-based. A general note: Loss of bound radioactivity is the signal in a displacement assay; it reports binding, not function.
For assay [3], the species on record is Rattus norvegicus. Description: Selectivity ratio of Ki for NET in rat brain frontal cortex to Ki for SERT in rat brain stem. The assay is classed as tissue-based.
The species entered for assay [4] is Rattus norvegicus. Description: Selectivity ratio of Ki for DAT in rat caudate-putamen to Ki for SERT in rat brain stem. In kind it is tissue-based.
Assay [5] can be described thus: Displacement of [3H]leucine from Leucine transporter.

This is an account of results in ChEMBL document CHEMBL1212898 (J Med Chem, 2010).

Transporter, sequence (Q63380 whole entry): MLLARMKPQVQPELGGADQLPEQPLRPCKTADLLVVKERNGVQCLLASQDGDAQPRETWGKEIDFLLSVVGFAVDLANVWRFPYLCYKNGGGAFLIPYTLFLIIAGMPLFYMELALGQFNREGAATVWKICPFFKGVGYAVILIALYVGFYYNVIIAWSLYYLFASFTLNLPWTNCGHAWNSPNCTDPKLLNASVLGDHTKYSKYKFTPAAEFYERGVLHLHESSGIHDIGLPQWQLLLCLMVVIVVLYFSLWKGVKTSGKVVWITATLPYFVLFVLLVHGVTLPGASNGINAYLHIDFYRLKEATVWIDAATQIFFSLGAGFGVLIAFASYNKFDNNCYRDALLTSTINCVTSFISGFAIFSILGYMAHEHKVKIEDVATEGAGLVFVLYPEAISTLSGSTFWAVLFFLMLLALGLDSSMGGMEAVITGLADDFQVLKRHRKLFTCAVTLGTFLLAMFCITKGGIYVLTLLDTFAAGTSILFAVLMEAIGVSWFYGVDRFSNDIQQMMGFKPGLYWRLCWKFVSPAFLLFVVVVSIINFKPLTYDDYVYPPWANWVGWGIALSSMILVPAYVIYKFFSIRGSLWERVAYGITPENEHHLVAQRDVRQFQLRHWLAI
Sodium-dependent serotonin transporter, sequence (P31652 whole entry): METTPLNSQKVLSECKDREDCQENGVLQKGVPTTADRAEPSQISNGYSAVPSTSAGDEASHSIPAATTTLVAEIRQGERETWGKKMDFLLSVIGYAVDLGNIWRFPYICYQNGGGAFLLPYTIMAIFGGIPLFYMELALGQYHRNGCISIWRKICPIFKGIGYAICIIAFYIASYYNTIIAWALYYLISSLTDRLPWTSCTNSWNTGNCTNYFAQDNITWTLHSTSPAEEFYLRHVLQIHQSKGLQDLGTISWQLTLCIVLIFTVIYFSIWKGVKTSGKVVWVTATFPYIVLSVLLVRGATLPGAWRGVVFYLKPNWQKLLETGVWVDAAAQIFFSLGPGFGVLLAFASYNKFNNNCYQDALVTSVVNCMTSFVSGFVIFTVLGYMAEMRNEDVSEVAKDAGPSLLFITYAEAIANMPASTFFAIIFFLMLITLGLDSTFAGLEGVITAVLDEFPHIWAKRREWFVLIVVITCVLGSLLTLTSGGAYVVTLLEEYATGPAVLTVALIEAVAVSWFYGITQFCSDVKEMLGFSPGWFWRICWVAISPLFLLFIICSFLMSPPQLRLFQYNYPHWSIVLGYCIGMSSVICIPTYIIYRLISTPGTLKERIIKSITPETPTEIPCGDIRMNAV
Sodium-dependent dopamine transporter, sequence (P23977 whole entry): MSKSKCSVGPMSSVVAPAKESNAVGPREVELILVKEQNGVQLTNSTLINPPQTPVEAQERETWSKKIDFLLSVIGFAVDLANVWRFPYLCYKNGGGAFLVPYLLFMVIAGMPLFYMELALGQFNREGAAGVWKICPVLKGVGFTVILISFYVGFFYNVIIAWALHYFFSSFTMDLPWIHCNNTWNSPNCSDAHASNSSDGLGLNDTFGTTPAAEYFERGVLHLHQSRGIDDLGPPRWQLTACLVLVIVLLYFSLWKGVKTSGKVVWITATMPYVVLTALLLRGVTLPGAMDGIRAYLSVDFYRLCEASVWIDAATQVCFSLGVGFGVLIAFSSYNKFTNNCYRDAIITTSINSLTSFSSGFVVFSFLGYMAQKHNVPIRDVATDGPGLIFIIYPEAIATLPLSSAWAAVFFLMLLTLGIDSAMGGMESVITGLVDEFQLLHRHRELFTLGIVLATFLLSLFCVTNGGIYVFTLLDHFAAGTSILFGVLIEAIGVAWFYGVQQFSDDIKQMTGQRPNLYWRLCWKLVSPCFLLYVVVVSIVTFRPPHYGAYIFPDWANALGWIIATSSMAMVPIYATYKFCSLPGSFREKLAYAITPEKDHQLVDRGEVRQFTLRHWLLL

Regarding `CN(C)CCCC1(c2ccc(F)cc2)OCc2cc(/C=C/c3ccc(Cl)cc3)ccc21` (configuration not stated), the Ki stood at 0.0336 µM in assay [1], 25.1 µM on Transporter and 2 µM in assay [2]. For the same molecule, the Ratio Ki in the assay filed under Rattus norvegicus [3] came to 747; in the assay filed under Rattus norvegicus [4] it was 60.

For `CN(C)CCCC1(c2ccc(F)cc2)OCc2c(-c3cccc(F)c3)cccc21` (configuration not stated), the values for the Ki (in assay [1]; on Transporter; in assay [2]) were 0.00822 µM, 7.67 µM and 0.49 µM, respectively. Also, the Ratio Ki in the assay filed under Rattus norvegicus [3] stood at 933; in the assay listed under Rattus norvegicus [4], 60.

In the case of `CN(C)CCC[C@@]1(c2ccc(F)cc2)OCc2cc(/C=C/c3ccccc3)ccc21`, the values for the Ki (in assay [1]; on Transporter; in assay [2]) were 0.0106 µM, 16.8 µM and 1.81 µM, respectively. For the same molecule, the Ratio Ki in the assay filed under Rattus norvegicus [3] turned out to be 1590; in the assay listed under Rattus norvegicus [4], 171.

Molecule `CN(C)CCC[C@@]1(c2ccc(F)cc2)OCc2cc(C#N)ccc21` [ESCITALOPRAM] came in with an IC50 in assay [5] of 1560 µM.

For `CN(C)CCCC1(c2ccc(F)cc2)OCc2cc(-c3cccc(F)c3)ccc21` (configuration not stated), the results for the Ki (in assay [1]; on Transporter) were 0.0218 µM and 4.2 µM, respectively.

With `CN(C)CCCC1(c2ccc(F)cc2)OCc2c(/C=C/c3ccccc3)cccc21` (configuration not stated), the Ki came to 0.0464 µM in assay [1], 11.9 µM at Transporter and 1.14 µM in assay [2]. For the same molecule, the Ratio Ki is 256 in the assay filed under Rattus norvegicus [3] and 25 in the assay listed under Rattus norvegicus [4].

As for `CN(C)CCC[C@]1(c2ccc(F)cc2)OCc2cc(/C=C/c3ccccc3)ccc21`, the Ki in assay [1] came out at 0.113 µM; on Transporter, 5.19 µM; in assay [2], 0.541 µM. Besides, the Ratio Ki was determined as 46 in the assay listed under Rattus norvegicus [3] and 4.79 in the assay listed under Rattus norvegicus [4].

As for `CN(C)CCCC1(c2ccc(F)cc2)OCc2cc(-c3cccc(C#N)c3)ccc21` (configuration not stated), the values for the Ki (in assay [1]; on Transporter; in assay [2]) were 0.0067 µM, 4.98 µM and 0.737 µM, respectively. Moreover, the Ratio Ki in the assay filed under Rattus norvegicus [3] is 743; in the assay filed under Rattus norvegicus [4], 110.

In the case of `CN(C)CCCC1(c2ccc(F)cc2)OCc2cc(-c3ccc(Cl)c(Cl)c3)ccc21` (configuration not stated), the Ki in assay [1] was 0.143 µM; on Transporter it was 12.7 µM; in assay [2], 2.51 µM. For the same molecule, the Ratio Ki is 89 in the assay listed under Rattus norvegicus [3] and 18 in the assay listed under Rattus norvegicus [4].

Regarding `CN(C)CCCC1(c2ccc(F)cc2)OCc2cc(-c3cccc(N)c3)ccc21` (configuration not stated), the Ki amounted to 0.0104 µM in assay [1] and 1.69 µM in assay [2].

On to `CN(C)CCC[C@@]1(c2ccc(F)cc2)OCc2cc(Br)ccc21`, for which the Ki in assay [1] was 0.00092 µM; on Transporter it was 8.41 µM; in assay [2], 2.25 µM. For the same molecule, the Ratio Ki in the assay listed under Rattus norvegicus [3] was 9140; in the assay listed under Rattus norvegicus [4], 2450. Further, the IC50 in assay [5] came out at 400 µM.

On to `CN(C)CCC[C@]1(c2ccc(F)cc2)OCc2cc(Br)ccc21`, for which the Ki came to 0.0236 µM in assay [1], 21.6 µM on Transporter and 1.35 µM in assay [2]. Besides, the Ratio Ki in the assay filed under Rattus norvegicus [3] turned out to be 915; in the assay listed under Rattus norvegicus [4], 57. The molecule also came in with an IC50 in assay [5] of 420 µM.

Regarding `CN(C)CCCC1(c2ccc(F)cc2)OCc2c(Br)cccc21` (configuration not stated), the Ki in assay [1] worked out at 0.00387 µM; at Transporter, 6.17 µM; in assay [2], 0.216 µM. Moreover, the Ratio Ki in the assay listed under Rattus norvegicus [3] was 1590; in the assay filed under Rattus norvegicus [4] it was 56.

For the molecule `CN(C)CCCC1(c2ccc(F)cc2)OCc2cc(/C=C/c3ccccc3)ccc21` (racemic), the Ki in assay [1] is 0.00932 µM; on Transporter it was 11.4 µM; in assay [2], 0.836 µM. For the same molecule, the Ratio Ki in the assay filed under Rattus norvegicus [3] is 1220; in the assay filed under Rattus norvegicus [4], 90.

Consider `CN(C)CCCC1(c2ccc(F)cc2)OCc2cc(I)ccc21` (configuration not stated), for which the Ki in assay [1] stood at 0.00142 µM; in assay [2], 1.35 µM.

For `CN(C)CCCC1(c2ccc(F)cc2)OCc2cc(-c3cc(F)cc(F)c3)ccc21` (configuration not stated), the figures for the Ki (in assay [1]; at Transporter) were 0.108 µM and 2 µM, respectively.

With `CN(C)CCCC1(c2ccc(F)cc2)OCc2cc(CCc3ccccc3)ccc21` (configuration not stated), the Ki stood at 0.0381 µM in assay [1] and 4.63 µM on Transporter.

On to `CN(C)CCCC1(c2ccc(F)cc2)OCc2c(-c3ccccc3)cccc21` (configuration not stated), for which the Ki in assay [1] came to 0.00507 µM; at Transporter, 7.16 µM; in assay [2], 0.542 µM. Further, the Ratio Ki was found to be 1410 in the assay filed under Rattus norvegicus [3] and 107 in the assay filed under Rattus norvegicus [4].

Take `CN(C)CCCC1(c2ccc(F)cc2)OCc2cc(Br)ccc21` (racemic): the Ki in assay [1] came out at 0.00104 µM; on Transporter, 28.4 µM.

On to `CN(C)CCCC1(c2ccc(F)cc2)OCc2cc(-c3cccc(Cl)c3)ccc21` (configuration not stated), for which the Ki amounted to 0.0612 µM in assay [1], 5.71 µM on Transporter and 1.39 µM in assay [2]. The Ratio Ki worked out at 93 in the assay listed under Rattus norvegicus [3] and 23 in the assay filed under Rattus norvegicus [4].

For the molecule `COc1cccc(-c2ccc3c(c2)COC3(CCCN(C)C)c2ccc(F)cc2)c1` (configuration not stated), the Ki was 0.0092 µM in assay [1] and 2.61 µM on Transporter.

Turning to `CN(C)CCCC1(c2ccc(F)cc2)OCc2cc(-c3ccccc3)ccc21` (configuration not stated), the figures for the Ki (in assay [1]; on Transporter; in assay [2]) were 0.04 µM, 16.9 µM and 1.8 µM, respectively. Moreover, the Ratio Ki in the assay listed under Rattus norvegicus [3] is 423; in the assay listed under Rattus norvegicus [4] it was 45.

A word on the Ki: it is the dissociation constant of the complex between target and ligand, obtained from inhibition or displacement. The low end stands for a stronger hold on the target, the high end for a looser hold on the target. For orientation: IC50 means the concentration at which inhibition is half-maximal. Read a low IC50 as inhibition by little substance.
